Assays:
P2Y purinoceptor 14 = target: T1, P2Y purinoceptor 14 (Homo sapiens, UniProt Q15391)
T1 sequence (Q15391 whole entry): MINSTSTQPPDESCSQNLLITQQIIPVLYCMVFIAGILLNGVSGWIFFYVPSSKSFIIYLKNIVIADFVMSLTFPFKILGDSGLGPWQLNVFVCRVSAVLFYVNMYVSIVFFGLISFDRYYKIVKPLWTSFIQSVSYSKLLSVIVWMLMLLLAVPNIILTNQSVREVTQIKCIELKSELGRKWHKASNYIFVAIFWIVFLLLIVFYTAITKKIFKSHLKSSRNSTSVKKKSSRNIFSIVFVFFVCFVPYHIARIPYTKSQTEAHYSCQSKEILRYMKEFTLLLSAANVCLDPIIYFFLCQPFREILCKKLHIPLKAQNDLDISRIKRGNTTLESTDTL
Description: Displacement of MRS4174 from human P2Y14R expressed in CHO cells preincubated for 30 mins followed by MRS4174 addition measured after 30 mins by flow cytometric method

[1] = target: Delta-type opioid receptor (Homo sapiens, UniProt P41143); assay: Displacement of [3H]-DADLE from human delta opioid receptor expressed in HEK293 cells after 90 mins by scintillation counting method; type: cell-based
[2] = Half life in Sprague-Dawley rat plasma at 0.5 mg/kg, iv; type: ADME, organism-based
Cytochrome P450 1A2 = Cytochrome P450 1A2 (Homo sapiens, UniProt P05177); assay: Inhibition of CYP1A2 (unknown origin); type: ADME
Cytochrome P450 2C9 = Cytochrome P450 2C9 (Homo sapiens, UniProt P11712); assay: Inhibition of CYP2C9 (unknown origin); type: ADME
Cytochrome P450 2C19 = Cytochrome P450 2C19 (Homo sapiens, UniProt P33261); assay: Inhibition of CYP2C19 (unknown origin); type: ADME
Cytochrome P450 2D6 = Cytochrome P450 2D6 (Homo sapiens, UniProt P10635); assay: Inhibition of CYP2D6 (unknown origin); type: ADME
Cytochrome P450 3A4 = Cytochrome P450 3A4 (Homo sapiens, UniProt P08684); assay: Inhibition of CYP3A4 (unknown origin); type: ADME
[3] = Metabolic stability in human plasma assessed as parent compound remaining after 120 mins; type: ADME, cell-free; details: read-out: Stability
[4] = Metabolic stability in rat plasma assessed as parent compound remaining after 120 mins; type: ADME, cell-free; details: read-out: Stability
[5] = Metabolic stability in mouse plasma assessed as parent compound remaining after 120 mins; type: ADME, cell-free; details: read-out: Stability
HepG2 = assay: Cytotoxicity against human HepG2 cells; type: cell-based
[6] = Aqueous solubility of the compound; type: physicochemical; details: buffer
[7] = target: Voltage-gated inwardly rectifying potassium channel KCNH2 (Homo sapiens, UniProt Q12809); assay: Inhibition of human ERG
[8] = target: Sodium-dependent noradrenaline transporter (Homo sapiens, UniProt P23975); assay: Displacement of [3H]-Nisoxetine from human NET expressed in HEK293 cell membranes after 90 mins by scintillation counting method
Sodium-dependent noradrenaline transporter, sequence (P23975 whole entry): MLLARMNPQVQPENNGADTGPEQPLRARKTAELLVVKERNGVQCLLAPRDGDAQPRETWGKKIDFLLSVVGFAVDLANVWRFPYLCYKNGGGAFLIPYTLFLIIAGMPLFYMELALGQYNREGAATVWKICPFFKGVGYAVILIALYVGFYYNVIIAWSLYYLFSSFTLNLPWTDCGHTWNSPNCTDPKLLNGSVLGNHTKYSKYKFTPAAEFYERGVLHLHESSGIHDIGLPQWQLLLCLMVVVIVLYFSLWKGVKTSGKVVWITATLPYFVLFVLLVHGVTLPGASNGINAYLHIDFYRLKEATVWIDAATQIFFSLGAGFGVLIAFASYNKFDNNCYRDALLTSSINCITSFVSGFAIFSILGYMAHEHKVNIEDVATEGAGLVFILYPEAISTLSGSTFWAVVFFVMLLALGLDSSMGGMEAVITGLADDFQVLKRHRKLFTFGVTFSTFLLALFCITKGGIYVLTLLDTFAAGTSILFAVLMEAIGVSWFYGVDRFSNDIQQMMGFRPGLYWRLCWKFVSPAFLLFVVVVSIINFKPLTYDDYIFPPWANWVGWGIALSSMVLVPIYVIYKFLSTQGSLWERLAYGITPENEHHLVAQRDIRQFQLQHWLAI

Delta-type opioid receptor, sequence (P41143 whole entry): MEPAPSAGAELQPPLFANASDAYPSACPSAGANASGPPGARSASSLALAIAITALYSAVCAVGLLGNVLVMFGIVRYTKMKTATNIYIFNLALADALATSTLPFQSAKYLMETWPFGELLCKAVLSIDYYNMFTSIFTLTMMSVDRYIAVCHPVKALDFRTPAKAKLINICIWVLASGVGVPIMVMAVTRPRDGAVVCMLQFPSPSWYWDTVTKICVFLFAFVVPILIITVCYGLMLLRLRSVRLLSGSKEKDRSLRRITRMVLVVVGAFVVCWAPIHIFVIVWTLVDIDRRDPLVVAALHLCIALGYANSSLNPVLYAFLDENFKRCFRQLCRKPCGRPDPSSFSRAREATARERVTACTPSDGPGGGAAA
Voltage-gated inwardly rectifying potassium channel KCNH2, sequence (Q12809 whole entry): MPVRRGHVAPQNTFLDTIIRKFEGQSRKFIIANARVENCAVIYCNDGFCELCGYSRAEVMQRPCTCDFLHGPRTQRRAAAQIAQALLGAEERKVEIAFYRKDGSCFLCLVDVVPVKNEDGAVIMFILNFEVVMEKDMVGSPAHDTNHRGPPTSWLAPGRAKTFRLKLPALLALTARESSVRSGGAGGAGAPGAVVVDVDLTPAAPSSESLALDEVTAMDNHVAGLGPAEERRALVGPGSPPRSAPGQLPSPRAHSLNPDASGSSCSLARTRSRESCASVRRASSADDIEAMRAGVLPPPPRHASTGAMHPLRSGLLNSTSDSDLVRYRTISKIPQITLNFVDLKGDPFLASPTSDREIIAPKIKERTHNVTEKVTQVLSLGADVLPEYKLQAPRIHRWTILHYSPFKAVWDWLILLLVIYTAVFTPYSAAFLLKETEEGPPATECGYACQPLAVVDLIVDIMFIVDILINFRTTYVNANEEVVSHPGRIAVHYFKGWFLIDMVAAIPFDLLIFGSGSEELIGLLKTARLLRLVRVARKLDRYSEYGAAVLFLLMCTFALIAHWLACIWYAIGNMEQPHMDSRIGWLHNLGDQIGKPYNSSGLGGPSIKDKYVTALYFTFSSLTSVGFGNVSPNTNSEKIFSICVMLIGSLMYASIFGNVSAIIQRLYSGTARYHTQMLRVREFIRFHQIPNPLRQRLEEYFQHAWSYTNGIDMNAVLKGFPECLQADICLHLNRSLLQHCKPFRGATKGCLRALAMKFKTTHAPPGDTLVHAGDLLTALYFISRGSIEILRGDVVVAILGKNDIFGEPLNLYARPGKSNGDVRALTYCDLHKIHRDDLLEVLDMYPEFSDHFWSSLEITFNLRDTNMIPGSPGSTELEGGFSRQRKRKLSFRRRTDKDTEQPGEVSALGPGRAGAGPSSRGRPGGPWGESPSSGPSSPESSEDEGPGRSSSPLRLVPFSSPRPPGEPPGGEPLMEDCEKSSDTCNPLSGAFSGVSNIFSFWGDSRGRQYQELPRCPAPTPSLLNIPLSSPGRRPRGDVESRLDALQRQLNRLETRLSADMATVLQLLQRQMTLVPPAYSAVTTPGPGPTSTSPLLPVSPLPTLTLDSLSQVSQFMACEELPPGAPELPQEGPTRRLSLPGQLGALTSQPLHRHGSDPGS
Cytochrome P450 1A2, sequence (P05177 whole entry): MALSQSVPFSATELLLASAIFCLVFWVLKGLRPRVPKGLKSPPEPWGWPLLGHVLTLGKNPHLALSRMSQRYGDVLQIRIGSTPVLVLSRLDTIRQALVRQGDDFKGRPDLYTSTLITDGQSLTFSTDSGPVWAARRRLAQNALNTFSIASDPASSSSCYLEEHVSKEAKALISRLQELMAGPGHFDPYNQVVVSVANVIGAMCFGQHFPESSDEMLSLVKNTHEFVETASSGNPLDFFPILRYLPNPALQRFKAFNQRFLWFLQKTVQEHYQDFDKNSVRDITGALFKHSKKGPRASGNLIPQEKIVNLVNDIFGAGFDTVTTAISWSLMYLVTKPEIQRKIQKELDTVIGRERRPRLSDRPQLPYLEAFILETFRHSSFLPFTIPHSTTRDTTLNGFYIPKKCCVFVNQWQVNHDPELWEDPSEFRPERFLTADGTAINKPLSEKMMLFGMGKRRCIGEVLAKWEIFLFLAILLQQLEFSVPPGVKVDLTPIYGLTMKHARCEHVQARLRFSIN
Cytochrome P450 3A4, sequence (P08684 whole entry): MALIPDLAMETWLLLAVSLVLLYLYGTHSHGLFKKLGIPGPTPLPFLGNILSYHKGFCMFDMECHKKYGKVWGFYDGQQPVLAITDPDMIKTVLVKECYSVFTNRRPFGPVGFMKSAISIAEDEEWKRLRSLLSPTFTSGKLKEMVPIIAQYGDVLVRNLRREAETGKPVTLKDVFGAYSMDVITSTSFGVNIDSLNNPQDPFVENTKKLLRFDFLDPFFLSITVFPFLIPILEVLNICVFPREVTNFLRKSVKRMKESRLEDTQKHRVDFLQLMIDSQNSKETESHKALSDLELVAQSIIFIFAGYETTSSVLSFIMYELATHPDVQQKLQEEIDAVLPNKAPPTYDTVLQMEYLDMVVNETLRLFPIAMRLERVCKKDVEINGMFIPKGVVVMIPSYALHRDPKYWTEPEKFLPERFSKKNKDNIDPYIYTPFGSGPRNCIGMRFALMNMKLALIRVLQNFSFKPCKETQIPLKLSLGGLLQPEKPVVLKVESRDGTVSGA
Cytochrome P450 2D6, sequence (P10635 whole entry): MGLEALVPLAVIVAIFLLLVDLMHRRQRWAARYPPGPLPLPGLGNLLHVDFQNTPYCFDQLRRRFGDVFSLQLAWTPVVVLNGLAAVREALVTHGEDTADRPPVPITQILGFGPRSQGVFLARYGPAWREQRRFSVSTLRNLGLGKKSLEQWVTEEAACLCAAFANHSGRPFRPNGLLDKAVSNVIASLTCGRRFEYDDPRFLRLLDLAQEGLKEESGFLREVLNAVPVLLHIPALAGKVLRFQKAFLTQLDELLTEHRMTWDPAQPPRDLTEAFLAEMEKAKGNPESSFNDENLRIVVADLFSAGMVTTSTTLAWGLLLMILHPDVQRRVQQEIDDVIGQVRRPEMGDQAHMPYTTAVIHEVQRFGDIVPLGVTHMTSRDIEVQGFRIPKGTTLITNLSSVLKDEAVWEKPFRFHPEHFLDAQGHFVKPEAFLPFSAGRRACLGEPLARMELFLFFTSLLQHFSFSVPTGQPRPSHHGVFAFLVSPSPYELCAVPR
Cytochrome P450 2C19, sequence (P33261 whole entry): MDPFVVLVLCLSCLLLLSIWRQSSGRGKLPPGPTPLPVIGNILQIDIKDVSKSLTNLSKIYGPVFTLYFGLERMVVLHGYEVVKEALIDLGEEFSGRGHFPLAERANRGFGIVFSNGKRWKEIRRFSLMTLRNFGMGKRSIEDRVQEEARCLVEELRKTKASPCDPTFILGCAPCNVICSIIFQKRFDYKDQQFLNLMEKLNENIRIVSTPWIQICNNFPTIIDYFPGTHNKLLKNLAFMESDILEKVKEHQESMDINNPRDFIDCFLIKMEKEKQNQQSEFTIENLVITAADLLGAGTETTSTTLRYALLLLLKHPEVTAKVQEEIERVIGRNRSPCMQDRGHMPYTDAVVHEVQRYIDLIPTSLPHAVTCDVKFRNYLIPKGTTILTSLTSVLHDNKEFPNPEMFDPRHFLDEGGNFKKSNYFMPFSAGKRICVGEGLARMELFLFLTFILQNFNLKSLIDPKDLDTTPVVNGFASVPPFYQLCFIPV
Cytochrome P450 2C9, sequence (P11712 whole entry): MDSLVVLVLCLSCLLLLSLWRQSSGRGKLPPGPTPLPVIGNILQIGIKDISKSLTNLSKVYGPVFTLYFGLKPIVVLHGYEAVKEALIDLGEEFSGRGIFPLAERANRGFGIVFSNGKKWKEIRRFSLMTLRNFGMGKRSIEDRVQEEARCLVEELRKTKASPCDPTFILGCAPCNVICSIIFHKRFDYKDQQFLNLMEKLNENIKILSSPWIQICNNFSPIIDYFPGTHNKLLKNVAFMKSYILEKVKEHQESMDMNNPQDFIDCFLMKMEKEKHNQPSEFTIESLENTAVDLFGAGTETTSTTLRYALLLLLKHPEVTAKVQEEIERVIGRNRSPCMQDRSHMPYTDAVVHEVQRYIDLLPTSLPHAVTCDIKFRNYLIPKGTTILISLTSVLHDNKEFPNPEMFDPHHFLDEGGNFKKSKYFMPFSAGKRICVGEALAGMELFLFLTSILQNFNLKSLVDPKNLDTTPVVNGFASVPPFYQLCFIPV

Structure (SMILES)	IC50 (P2Y purinoceptor 14)	also measured
NC(=O)c1ccc(-c2cc(C(=O)O)cc(-n3cc(-c4ccc(C(F)(F)F)cc4)nn3)c2)o1	3110 nM	–
O=C(O)c1cc(O)cc(-n2cc(-c3ccc(C(F)(F)F)cc3)nn2)c1	16400 nM	–
CCCNC(=O)c1ccc(-c2cc(C(=O)O)cc(-n3cc(-c4ccc(C(F)(F)F)cc4)nn3)c2)cc1	1490 nM	–
CC(C)(C)NC(=O)c1ccc(-c2cc(C(=O)O)cc(-n3cc(-c4ccc(C(F)(F)F)cc4)nn3)c2)cc1	7530 nM	–
O=C(O)c1cc(Br)cc(-n2cc(-c3ccc(C(F)(F)F)cc3)nn2)c1	26800 nM	–
CC(C)(C)OC(=O)NCCCNS(=O)(=O)c1ccc(-c2cc(C(=O)O)cc(-n3cc(-c4ccc(C(F)(F)F)cc4)nn3)c2)s1	9330 nM	–
O=C(O)c1cc(-c2ccc(C(=O)N3CCNCC3)s2)cc(-n2cc(-c3ccc(C(F)(F)F)cc3)nn2)c1	12600 nM	–
C#CCCCCN1CCC(c2ccc(-c3cc(C(=O)O)cc4cc(-c5ccc(C(F)(F)F)cc5)ccc34)cc2)CC1	763 nM	–
NS(=O)(=O)c1ccc(-c2cc(C(=O)O)cc(-n3cc(-c4ccc(C(F)(F)F)cc4)nn3)c2)cc1	608 nM	Ki [1]: 3260 nM
NCCCNS(=O)(=O)c1ccc(-c2cc(C(=O)O)cc(-n3cc(-c4ccc(C(F)(F)F)cc4)nn3)c2)s1	756 nM	–
NC(=O)c1ccc(-c2cc(-c3nnn[nH]3)cc(-n3cc(-c4ccc(C(F)(F)F)cc4)nn3)c2)cc1	2430 nM	–
CCN(CC)CC.NC(=O)c1ccc(-c2cc(C(=O)O)cc(-n3cc(-c4ccc(C(F)(F)F)cc4)nn3)c2)cc1	269 nM	Ki [1]: 1470 nM; half-life [2]: 12 min; IC50 (Cytochrome P450 1A2): ≥ 30000 nM; IC50 (Cytochrome P450 2C9): ≥ 30000 nM; IC50 (Cytochrome P450 2C19): ≥ 30000 nM; IC50 (Cytochrome P450 2D6): ≥ 30000 nM; IC50 (Cytochrome P450 3A4): ≥ 30000 nM; remaining at 2 h [3]: 94 to 100%; remaining at 2 h [4]: 94 to 100%; remaining at 2 h [5]: 94 to 100%; CC50 (HepG2): > 30000 nM; solubility [6]: 138 µg/mL; IC50 [7]: 166 nM
FC(F)(F)c1ccc(-c2cn(-c3cc(-c4ccc(C5CCNCC5)cc4)cc(-c4nnn[nH]4)c3)nn2)cc1	958 nM	–
O=C(O)c1cc(O)c2ccc(-c3ccc(C(F)(F)F)cc3)cc2c1	–	Ki [8]: 5800 nM
CC(C)(C)OC(=O)NCCCNC(=O)c1ccc(-c2cc(C(=O)O)cc(-n3cc(-c4ccc(C(F)(F)F)cc4)nn3)c2)s1	2280 nM	–
CCNC(=O)c1ccc(-c2cc(C(=O)O)cc(-n3cc(-c4ccc(C(F)(F)F)cc4)nn3)c2)cc1	899 nM	–
CC(=O)NCCCCCCn1cc(CCCCN2CCC(c3ccc(-c4cc(C(=O)O)cc5cc(-c6ccc(C(F)(F)F)cc6)ccc45)cc3)CC2)nn1	83.5 nM	–
CC(C)(C)OC(=O)N1CCN(C(=O)c2ccc(-c3cc(C(=O)O)cc(-n4cc(-c5ccc(C(F)(F)F)cc5)nn4)c3)s2)CC1	53000 nM	–
NCCCCNS(=O)(=O)c1ccc(-c2cc(C(=O)O)cc(-n3cc(-c4ccc(C(F)(F)F)cc4)nn3)c2)s1	2180 nM	–
CNC(=O)c1ccc(-c2cc(C(=O)O)cc(-n3cc(-c4ccc(C(F)(F)F)cc4)nn3)c2)cc1	563 nM	–
O=C(O)c1cc(-c2ccc(S(=O)(=O)NCCCCO)s2)cc(-n2cc(-c3ccc(C(F)(F)F)cc3)nn2)c1	8420 nM	–

— ChEMBL document CHEMBL4184336, “Structure-Guided Modification of Heterocyclic Antagonists of the P2Y14 Receptor” (J Med Chem, 2018)
